Legend:
Format in all cases: protein assay
Alpha glucosidase [1] = molecular target: T1, Alpha glucosidase (Homo sapiens, UniProt O43451+P10253+P14410+Q2M2H8); assay: Competitive inhibition of Alpha-glucosidase (unknown origin) by Lineweaver-Burk plot analysis
Alpha glucosidase [2] = molecular target: T1, Alpha glucosidase; assay: Inhibition of Alpha-glucosidase (unknown origin)
Alpha glucosidase [3] = molecular target: T1, Alpha glucosidase; assay: Inhibition of Alpha-glucosidase (unknown origin) by Lineweaver-Burk plot analysis; details: dose 4.0 µM

Row | SMILES | Ki (Alpha glucosidase [1]) [µM] | IC50 (Alpha glucosidase [2]) [µM] | inhibition (Alpha glucosidase [3])
1 | O=c1ccc2c(Oc3cc4oc(=O)ccc4c(-c4c(O)c(O)c(-c5c(O)c(O)c(-c6c(O)c(O)cc7oc(=O)ccc67)c6ccc(=O)oc56)c5ccc(=O)oc45)c3O)c(O)c(O)cc2o1 | 0.2 | 0.7 | Dose-Dependent Effect
2 | O=c1ccc2c(-c3c(O)c(O)c(-c4c(O)c(O)cc5ccc(=O)oc45)c4oc(=O)ccc34)c(O)c(O)cc2o1 |  | 4.2 | 
3 | O=c1ccc2c(-c3c(O)c(O)c(-c4c(O)c(O)cc5oc(=O)ccc45)c4oc(=O)ccc34)c(O)c(O)cc2o1 | 1.9 | 4.7 | 
4 | O=c1ccc2cc(O)c(O)cc2o1 [ESCULETIN] |  | > 500 | 
5 | O=c1ccc2c(-c3c(O)c(O)cc4ccc(=O)oc34)c(O)c(O)cc2o1 | 10.1 | 17.6 | 
6 | O=c1ccc2c(-c3c(O)c(O)c(-c4c(O)c(O)c(-c5c(O)c(O)cc6oc(=O)ccc56)c5oc(=O)ccc45)c4oc(=O)ccc34)c(O)c(O)cc2o1 | 0.9 | 2.3 | 
7 | O=c1ccc2cc(O)c(O)c(-c3c(O)c(O)cc4ccc(=O)oc34)c2o1 | 3.4 | 6.4 | 

Reference: ChEMBL document CHEMBL5257102, “Enzymatic transformation of esculetin as a potent class of α-glucosidase inhibitors” (Bioorg Med Chem Lett, 2023)
